According to US8304445B2, “7-pyrazolyl tetracycline compounds and methods of use thereof” (Paratek Pharmaceuticals, Inc., priority 2001, dated 2012):
Converted amounts (≈) assume the structure as drawn.

Legend:
Assay type in all cases: cell-based
Settings in all cases: Mueller-Hinton broth, 37° C., 18 h
[1] = test system: M. catarrhalis ATCC 23246; test: MIC, broth microdilution, M. catarrhalis ATCC 23246
Description: (§1) Growth-inhibitory activity was determined on liquid medium by the antibiotic dilution technique using 96-well microtiter system plates containing two-fold dilutions of antibiotic-agent in 0.2 ml. of Mueller-Hinton broth. Plates were inoculated with each test organism to yield a final inoculum of 5×10^5 CFU/ml and were incubated aerobically at 37° C. for 18 h. The MIC was defined as the lowest concentration of antibacterial agent that inhibited development of visible growth in the microdilution wells.

S. aureus GFX01596 Tet R = test: MIC, broth microdilution, S. aureus GFX01596 Tet R
Description: as §1

S. aureus ATCC 29213 = test: MIC, broth microdilution, S. aureus ATCC 29213
Description: as §1

S. pneumoniae 157 = test: MIC, broth microdilution, S. pneumoniae 157
Description: as §1

[2] = test system: S. pneumoniae GFX01778 Tet R; test: MIC, broth microdilution, S. pneumoniae GFX01778 Tet R
Description: as §1

H. influenzae ATCC 49247 = test: MIC, broth microdilution, H. influenzae ATCC 49247
Description: as §1

E. coli ML 308-225 = test: MIC, broth microdilution, E. coli ML 308-225
Description: as §1

Q: Which results are given for `CN(C)[C@@H]1C(O)=C(C(N)=O)C(=O)[C@@]2(O)C(O)=C3C(=O)c4c(O)ccc(-n5ccc(C=NO)c5)c4C[C@H]3C[C@@H]12` [Example 4, [4S-(4aα,5aαα,12aα)]-4-(Dimethylamino)-7-(3-((hydroxymino)-methyl)-1H-pyrrol-1-yl)-1,4,4a,5,5a,6,11,12a-octahydro-3, 10,12,12a-tetrahydroxy-1,11-dioxo-2-naphthacenecarboxamide]?
A: MIC [1]: 0.03 µg/mL (≈ 0.0574 µM); MIC (S. aureus GFX01596 Tet R): 0.5 µg/mL (≈ 0.957 µM); MIC (S. aureus ATCC 29213): 0.12 µg/mL (≈ 0.23 µM); MIC (S. pneumoniae 157): 0.03 µg/mL (≈ 0.0574 µM); MIC [2]: 2 µg/mL (≈ 3.83 µM); MIC (H. influenzae ATCC 49247): 2 µg/mL (≈ 3.83 µM); MIC (E. coli ML 308-225): 1 µg/mL (≈ 1.91 µM)

Q: `CON=Cc1ccn(-c2ccc(O)c3c2C[C@H]2C[C@H]4[C@H](N(C)C)C(O)=C(C(N)=O)C(=O)[C@@]4(O)C(O)=C2C3=O)c1` [Example 6, [4S-(4aα,5aα12aα)]-4-(Dimethylamino)-7-(3-((methyloxymino)methyl)-1H-pyrrol-1-yl)-1,4,4a,5,5a,6,11,12a-octahydro-3,10,12,12a-tetrahydroxy-1,11-dioxo-2-naphthacenecarboxamide] was tested. Which MIC [1] did it give?
A: 0.004 µg/mL (≈ 0.00746 µM)

Q: What about the MIC (S. aureus GFX01596 Tet R) of the same compound?
A: 0.5 µg/mL (≈ 0.932 µM)

Q: What about the MIC (S. aureus ATCC 29213) of the same compound?
A: 0.12 µg/mL (≈ 0.224 µM)

Q: What about the MIC (S. pneumoniae 157) of the same compound?
A: 0.06 µg/mL (≈ 0.112 µM)

Q: And the MIC [2]?
A: 4 µg/mL (≈ 7.46 µM)

Q: What about the MIC (H. influenzae ATCC 49247) of the same compound?
A: 2 µg/mL (≈ 3.73 µM)

Q: And the MIC (E. coli ML 308-225)?
A: 2 µg/mL (≈ 3.73 µM)

Q: `CN(C)[C@@H]1C(O)=C(C(N)=O)C(=O)[C@@]2(O)C(O)=C3C(=O)c4c(O)ccc(-n5ccc(C#N)c5)c4C[C@H]3C[C@@H]12` [Example 5, [4S-(4aα,5aαα12aα)]-7-(3-Cyanopyrrol-1-yl)-4-(dimethylamino)-1,4,4a,5,5a,6,11,12a-octahydro-3,10,12,12a-tetrahydroxy-1,11-dioxo-2-naphthacenecarboxamide] was tested. Which MIC [1] did it give?
A: 0.001 µg/mL (≈ 0.00198 µM)

Q: And the MIC (S. aureus GFX01596 Tet R)?
A: 0.5 µg/mL (≈ 0.991 µM)

Q: What about the MIC (S. aureus ATCC 29213) of the same compound?
A: 0.015 µg/mL (≈ 0.0297 µM)

Q: What about the MIC (S. pneumoniae 157) of the same compound?
A: 0.015 µg/mL (≈ 0.0297 µM)

Q: What about the MIC [2] of the same compound?
A: 2 µg/mL (≈ 3.96 µM)

Q: What about the MIC (H. influenzae ATCC 49247) of the same compound?
A: 0.5 µg/mL (≈ 0.991 µM)

Q: What about the MIC (E. coli ML 308-225) of the same compound?
A: 0.5 µg/mL (≈ 0.991 µM)

Q: With `CN(C)[C@@H]1C(O)=C(C(N)=O)C(=O)[C@@]2(O)C(O)=C3C(=O)c4c(O)ccc(-n5ccc(C=O)c5)c4C[C@H]3C[C@@H]12` [Example 3, [4S-(4aα,5aαα,12aα)]-4-(Dimethylamino)-7-(1H-pyrrol-1-yl-3-carboxaldehyde)-1,4,4a,5,5a,6,11,12a-octahydro-3,10,12,12a-tetrahydroxy-1,11-dioxo-2-naphthacenecarboxamide] as the compound, how does the MIC [1] read?
A: 0.008 µg/mL (≈ 0.0158 µM)

Q: What about the MIC (S. aureus GFX01596 Tet R) of the same compound?
A: 0.25 µg/mL (≈ 0.493 µM)

Q: What about the MIC (S. aureus ATCC 29213) of the same compound?
A: 0.015 µg/mL (≈ 0.0296 µM)

Q: What about the MIC (S. pneumoniae 157) of the same compound?
A: 0.015 µg/mL (≈ 0.0296 µM)

Q: What about the MIC [2] of the same compound?
A: 2 µg/mL (≈ 3.94 µM)

Q: What about the MIC (H. influenzae ATCC 49247) of the same compound?
A: 1 µg/mL (≈ 1.97 µM)

Q: What about the MIC (E. coli ML 308-225) of the same compound?
A: 0.5 µg/mL (≈ 0.985 µM)
